Source: patent publication US20040002130A1, “Disruption of PQS synthesis using precursor analogs” (priority 2002, published 2004)

Assays:
[1] = tested on: PQS production; assay: Effect of methyl anthranilate on PQS production (TLC of culture supernatant extracts, densitometry); assay type: cell-based, P. aeruginosa strain PAO1
Method: Bacteria from frozen stocks were grown overnight on PTSB agar plates (Ohman, et al. (1980) J. Bacteriol. 142:836-842) at 37° C. Isolated colonies were used to inoculate 10 ml of PTSB which was then incubated for 18 hr at 37° C. with vigorous shaking. Cultures were diluted 1:100 into fresh media and grown for 24 hr as above. A 400 μl aliquot of each culture was mixed with 800 μl of acidified ethyl acetate (Pesci, et al. (1999) Proc. Natl. Acad. Sci. USA 96:11229-11234), vortexed vigorously for 30 sec, then centrifuged for 10 min at 16,000×g. The organic phase was transferred to a fresh tube, and the aqueous phase was re-extracted with an additional 800 μl of solvent. The organic phases were combined, dried to completion and the solute was dissolved in 200 μl of a 1:1 mix of acidified ethyl acetate:acetonitrile. An amount of extract derived from 5 μl of culture was loaded onto the TLC plate. TLC was performed with a silica gel 60 F254 TLC plate (EM Science) that had been soaked in 5% KH2PO4 and activated at 100° C. for one hour. […]
P. aeruginosa strain PAO1 was grown in the presence of increasing amounts of methyl anthranilate, and culture supernatants were extracted with ethyl acetate and separated on TLC plates. PQS was visualized under long-wave UV light and photographed to quantify PQS densitometrically. […]

[2] = tested on: P. aeruginosa strain PAO1; assay: Growth of cultures in the presence of methyl anthranilate; assay type: cell-based; details: 0, 0.25, 0.5, 1.0, and 1.5 mM methyl anthranilate
Method: P. aeruginosa strain PAO1 was grown in the presence of increasing amounts of methyl anthranilate, and culture supernatants were extracted with ethyl acetate and separated on TLC plates. PQS was visualized under long-wave UV light and photographed to quantify PQS densitometrically. The amount of PQS present in the culture supernatant decreased as the concentration of methyl anthranilated increased, although the growth of the cultures was not affected by the presence of methyl anthranilate at the concentrations used in these experiments (0, 0.25, 0.5, 1.0, and 1.5 mM methyl anthranilate, with approximately 30% PQS being produced at 1.5 mM methyl anthranilate as compared to wild type bacateria).

COC(=O)c1ccccc1N [methyl anthranilate]
PQS being produced as compared to wild type bacteria ([1]; 1.5 mM methyl anthranilate, strain PAO1 culture supernatant, densitometry of TLC under long-wave UV): approximately 30%
amount of PQS present in the culture supernatant ([1]; increasing methyl anthranilate concentration (0, 0.25, 0.5, 1.0, and 1.5 mM), strain PAO1): decreased
growth of the cultures [2]: not affected
